Experimental data taken from US20020137929A1, “1 - (3-heterocyclylphenyl) isothiourea, -isourea, -guanidine and -amidine herbicidal agents” (Intellectual Property Department, BASF Aktiengesellschaft, priority 1998, published 2002).

Assays:
[1] = tested on: IPOHE (Morningglory, Ivyleaf); assay: Preemergence herbicidal evaluation; assay type: in vivo, Ipomoea hederacea; details: rated 4-5 weeks after treatment
Summary of the method: (§1)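 Seeds were mixed with potting soil and planted on about one inch of soil, then sprayed with test compound in aqueous acetone at about 0.0156 to 0.500 kg per hectare. Plants grew under standard greenhouse care and were visually rated 0-9 against untreated controls 4-5 weeks post-treatment.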

ZEAMX (Corn, Field) [2] = assay: Postemergence herbicidal evaluation; assay type: in vivo, Zea mays; details: postemergence
Summary of the method: (§2)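 ~2-wk seedlings; postemergence spray, 40 psi; vehicle 1:1 acetone:water + 0.5% Tween 20; rate ≈0.0156–0.500 kg/ha; greenhouse hold; scored 4–5 wk after treatment, 0–9 scale vs control; repeat tests averaged.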

CYPSE (Flatsedge) [3] = assay: Postemergence weed control under flooded paddy conditions; assay type: in vivo, Cyperus serotinus; details: postemergence weeds, rated 3 to 4 weeks after treatment
Summary of the method: (§3)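 With weeds 3 to 5 cm tall and rice at the 1.5 to 2.5 leaf stage, containers were flooded and water held 1.5 to 3 cm above soil. Compounds in 50/50 v/v aqueous/acetone went into the flood water at about 0.0313 to 0.500 kg/ha a.i. Effects were visually rated 0–9 against controls after three to four weeks in the greenhouse.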

[4] = tested on: ECHORC (Watergrass (Calif.)); assay: Preemergence weed control under flooded paddy conditions; assay type: in vivo, Echinochloa oryzoides; details: rated 3-4 weeks after treatment
Summary of the method: (§4)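 Silt loam, seeds in top 0.5 cm; flood held 1.5-3 cm; test cpd as acetone/water 50/50 into flood water, ~0.0313-0.500 kg/ha a.i.; greenhouse 3-4 wk; visual 0-9 score vs control.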

ZEAMX (Corn, Field) [5] = assay: Preemergence herbicidal evaluation; assay type: in vivo, Zea mays; details: rated 4-5 weeks after treatment
Summary of the method: as §1

CYPIR (Rice Flatsedge) = assay: Preemergence weed control under flooded paddy conditions; assay type: in vivo, Cyperus iria; details: rated 3-4 weeks after treatment
Summary of the method: as §4

CASOB (Sicklepod) = assay: Postemergence herbicidal evaluation; assay type: in vivo, Cassia obtusifolia; details: postemergence
Summary of the method: as §2

[6] = tested on: CHEAL (Lambsquarters, Common); assay: Preemergence herbicidal evaluation; assay type: in vivo, Chenopodium album; details: rated 4-5 weeks after treatment
Summary of the method: as §1

[7] = tested on: TRZAWR (Wheat, Winter, cv Riband); assay: Preemergence herbicidal evaluation; assay type: in vivo, Triticum aestivum; details: rated 4-5 weeks after treatment
Summary of the method: as §1

AMBEL (Ragweed, Common) = assay: Preemergence herbicidal evaluation; assay type: in vivo, Ambrosia artemisifolia; details: rated 4-5 weeks after treatment
Summary of the method: as §1

ORYSAT (Rice, Tebonnet) = assay: Preemergence herbicidal evaluation; assay type: in vivo, Oryza sativa, (L.) Tebonnet; details: rated 4-5 weeks after treatment
Summary of the method: as §1

CYPSE (Flatsedge) [8] = assay: Preemergence weed control under flooded paddy conditions; assay type: in vivo, Cyperus serotinus; details: rated 3-4 weeks after treatment
Summary of the method: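 Seeds or propagules sown in top 0.5 cm of silt loam soil, flooded 1.5 to 3 cm above surface throughout. Compound in 50/50 v/v aqueous/acetone pipetted into flood water at about 0.0313 to 0.500 kg/ha. Visual 0-9 rating versus control after three to four weeks in greenhouse.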

GALAP (Galium) = assay: Postemergence herbicidal evaluation; assay type: in vivo, Galium aparine; details: postemergence
Summary of the method: as §2

[9] = tested on: ECHORC (Watergrass (Calif.)); assay: Postemergence weed control under flooded paddy conditions; assay type: in vivo, Echinochloa oryzoides; details: postemergence weeds, rated 3 to 4 weeks after treatment
Summary of the method: as §3

## C[C@H](C(=O)O)N1C(=O)CSC1=Nc1cc(-n2c(=O)cc(C(F)(F)F)n(C)c2=O)c(F)cc1Cl [Compound 70, 2-{{2-Chloro-5-[3,6-dihydro-3-methyl-2,6-dioxo-4-(trifluoromethyl)-1(2H)-pyrimidinyl]-4-fluoro-phenyl}imino}-α-methyl-4-oxo-3-thiazolidineacetic acid, D-]
[1]; rate 0.0156 kg/ha
  Preemergence herbicidal rating IPOHE: 0.0
[1]; rate 0.0313 kg/ha
  Preemergence herbicidal rating IPOHE: 0.0
[1]; rate 0.0625 kg/ha
  Preemergence herbicidal rating IPOHE: 0.0
[1]; rate 0.1250 kg/ha
  Preemergence herbicidal rating IPOHE: 1.0
[1]; rate 0.2500 kg/ha
  Preemergence herbicidal rating IPOHE: 5.0
ZEAMX (Corn, Field) [2]; rate 0.0158 kg/ha
  ZEAMX herbicidal rating: 4.0
ZEAMX (Corn, Field) [2]; rate 0.0315 kg/ha
  ZEAMX herbicidal rating: 5.5
ZEAMX (Corn, Field) [2]; rate 0.0630 kg/ha
  ZEAMX herbicidal rating: 7.0
CYPSE (Flatsedge) [3]; Rate 0.0313 kg/ha
  Herbicidal rating CYPSE: 0.0
CYPSE (Flatsedge) [3]; Rate 0.0625 kg/ha
  Herbicidal rating CYPSE: 0.0
CYPSE (Flatsedge) [3]; Rate 0.1250 kg/ha
  Herbicidal rating CYPSE: 0.0
CYPSE (Flatsedge) [3]; Rate 0.2500 kg/ha
  Herbicidal rating CYPSE: 3.0
[4]; 0.0313 kg/ha
  ECHORC herbicidal effect rating: 0.0
[4]; 0.0625 kg/ha
  ECHORC herbicidal effect rating: 0.0
[4]; 0.1250 kg/ha
  ECHORC herbicidal effect rating: 0.0
[4]; 0.2500 kg/ha
  ECHORC herbicidal effect rating: 0.0
ZEAMX (Corn, Field) [5]; rate 0.0156 kg/ha
  Preemergence herbicidal rating ZEAMX: 0.0
ZEAMX (Corn, Field) [5]; rate 0.0313 kg/ha
  Preemergence herbicidal rating ZEAMX: 0.0
ZEAMX (Corn, Field) [5]; rate 0.0625 kg/ha
  Preemergence herbicidal rating ZEAMX: 0.0
ZEAMX (Corn, Field) [5]; rate 0.1250 kg/ha
  Preemergence herbicidal rating ZEAMX: 1.0
ZEAMX (Corn, Field) [5]; rate 0.2500 kg/ha
  Preemergence herbicidal rating ZEAMX: 3.0
CYPIR (Rice Flatsedge); 0.0313 kg/ha
  CYPIR herbicidal effect rating: 0.0
CYPIR (Rice Flatsedge); 0.0625 kg/ha
  CYPIR herbicidal effect rating: 2.0
CYPIR (Rice Flatsedge); 0.1250 kg/ha
  CYPIR herbicidal effect rating: 2.0
CYPIR (Rice Flatsedge); 0.2500 kg/ha
  CYPIR herbicidal effect rating: 2.0
CASOB (Sicklepod); rate 0.0158 kg/ha
  CASOB herbicidal rating: 0.0
CASOB (Sicklepod); rate 0.0315 kg/ha
  CASOB herbicidal rating: 0.0
CASOB (Sicklepod); rate 0.0630 kg/ha
  CASOB herbicidal rating: 3.0
[6]; rate 0.0156 kg/ha
  Preemergence herbicidal rating CHEAL: 2.0
[6]; rate 0.0313 kg/ha
  Preemergence herbicidal rating CHEAL: 9.0
[6]; rate 0.0625 kg/ha
  Preemergence herbicidal rating CHEAL: 9.0
[6]; rate 0.1250 kg/ha
  Preemergence herbicidal rating CHEAL: 9.0
[6]; rate 0.2500 kg/ha
  Preemergence herbicidal rating CHEAL: 9.0
[7]; rate 0.0156 kg/ha
  Preemergence herbicidal rating TRZAWR: 0.0
[7]; rate 0.0313 kg/ha
  Preemergence herbicidal rating TRZAWR: 0.0
[7]; rate 0.0625 kg/ha
  Preemergence herbicidal rating TRZAWR: 0.0
[7]; rate 0.1250 kg/ha
  Preemergence herbicidal rating TRZAWR: 1.0
[7]; rate 0.2500 kg/ha
  Preemergence herbicidal rating TRZAWR: 5.0
AMBEL (Ragweed, Common); rate 0.0156 kg/ha
  Preemergence herbicidal rating AMBEL: 0.0
AMBEL (Ragweed, Common); rate 0.0313 kg/ha
  Preemergence herbicidal rating AMBEL: 0.0
AMBEL (Ragweed, Common); rate 0.0625 kg/ha
  Preemergence herbicidal rating AMBEL: 0.0
AMBEL (Ragweed, Common); rate 0.1250 kg/ha
  Preemergence herbicidal rating AMBEL: 3.0
AMBEL (Ragweed, Common); rate 0.2500 kg/ha
  Preemergence herbicidal rating AMBEL: 9.0
ORYSAT (Rice, Tebonnet); rate 0.0156 kg/ha
  Preemergence herbicidal rating ORYSAT: 0.0
ORYSAT (Rice, Tebonnet); rate 0.0313 kg/ha
  Preemergence herbicidal rating ORYSAT: 0.0
ORYSAT (Rice, Tebonnet); rate 0.0625 kg/ha
  Preemergence herbicidal rating ORYSAT: 0.0
ORYSAT (Rice, Tebonnet); rate 0.1250 kg/ha
  Preemergence herbicidal rating ORYSAT: 1.0
ORYSAT (Rice, Tebonnet); rate 0.2500 kg/ha
  Preemergence herbicidal rating ORYSAT: 3.0
CYPSE (Flatsedge) [8]; 0.0313 kg/ha
  CYPSE herbicidal effect rating: 0.0
CYPSE (Flatsedge) [8]; 0.0625 kg/ha
  CYPSE herbicidal effect rating: 0.0
CYPSE (Flatsedge) [8]; 0.1250 kg/ha
  CYPSE herbicidal effect rating: 0.0
CYPSE (Flatsedge) [8]; 0.2500 kg/ha
  CYPSE herbicidal effect rating: 3.0
GALAP (Galium); rate 0.0158 kg/ha
  GALAP herbicidal rating: 0.0
GALAP (Galium); rate 0.0315 kg/ha
  GALAP herbicidal rating: 0.0
GALAP (Galium); rate 0.0630 kg/ha
  GALAP herbicidal rating: 3.0
[9]; Rate 0.0313 kg/ha
  Herbicidal rating ECHORC: 0.0
[9]; Rate 0.0625 kg/ha
  Herbicidal rating ECHORC: 0.0
[9]; Rate 0.1250 kg/ha
  Herbicidal rating ECHORC: 0.0
[9]; Rate 0.2500 kg/ha
  Herbicidal rating ECHORC: 0.0
